The values below are quoted from earlier work in patent US8222218B2, “Cyclopropanated carbohydrates” (Seton Hall University, priority 2008, dated 2012).

In series [1] the test system is metabotropic glutamate receptors. The settings on record: background; cited from earlier work.
For series [2] the following is noted: background, previously made and tested; cited from earlier work.

Turning to “7-(hydroxyimino)cyclopropa[b]chromen-1a-carboxylate [Compound C]”, the “agonist activity at metabotropic glutamate receptors” value in series [1] is on record as “active agonists”.
For the compound `CNS(=O)(=O)OC[C@@]12OC[C@H]3OC(C)(C)O[C@H]3[C@@H]1OC(C)(C)O2` [A], the “anticonvulsant activity” value in series [2] is on record as “moderate anticonvulsant activity”.
Take `CC1(C)OC[C@@H]2O[C@@]3(COS(N)(=O)=O)OC(C)(C)O[C@H]3[C@@H]2O1` [B]: the “anticonvulsant activity” value in series [2] is “moderate anticonvulsant activity”.
For the compound `CC1(C)O[C@@H]2[C@@H](CO[C@@]3(COS(N)(=O)=O)OC(C)(C)O[C@@H]23)O1` [topiramate], in series [2], the “anticonvulsant activity” value is “greater anticonvulsant activity”.
